# Laboratory results: article PMC11436104 (Toxins, 2024)
# *1 amine or outer side, *2 acyl side, *3 side chain or, on linkers, in order; H or OH if unused. Where a SMILES comes first, the peptide text is derived from it. Bridges are numbered along the chain shown (N, C = ends). [ ]: non-standard residue; d: D form. Adda = CO[C@@H](Cc1ccccc1)[C@@H](C)/C=C(C)/C=C/[C@H](N[*:1])[C@H](C)C(=O)[*:2]; dAsp(3S-Me) = C[C@H](C(=O)[*:3])[C@@H](N[*:1])C(=O)[*:2]; d(γGlu) = O=C(O)[C@@H](CCC(=O)[*:2])N[*:1]; NMeDha = C=C(NC)C(=O)O
# Key:
# [1] = Interaction with the air–water interface (Langmuir trough, no lipids); assay type: physicochemical; settings: absence of lipids, 0–30 µM injected, 25 °C, pH 7.5
# Description: Lateral pressure measurements were carried out in a Langmuir trough (MicroTrough-S system; Kibron, Helsinki, Finland) at room temperature (25 °C) under constant stirring. The aqueous sub-phase was 500 µL 10 mM Hepes, 200 mM NaCl, and pH 7.5.
# U87-MG cells [2] = experiment: MTT metabolic activity / cell viability; assay type: cell-based, human
# Description: Normal human astrocytes (NHAs; Lonza, Walkersville, MD, USA) were grown and maintained in monolayer cultures in Dulbecco’s modified Eagle’s medium (DMEM; Sigma) supplemented with 10% fetal bovine serum (Euroclone, Pero, MI, Italy), 1% penicillin/streptomycin (Euroclone), 2 mM L-glutamine (Euroclone), and 20 mM Hepes (Invitrogen, Carlsbad, CA, USA). The U87-MG human glioblastoma cells (U87-MG cells; American Type Culture Collection, Manassas, VA, USA) were grown and maintained in monolayer cultures in DMEM supplemented with 10% fetal bovine serum, 1% penicillin/streptomycin, 4 mM L-glutamine, and 1% non-essential amino acids (Sigma).
# Cell viability was determined using the 3-(4,5-dimethylthiazolyl-2)-2,5-diphenyltetrazolium bromide (MTT) assay, as according to Mosmann. This assay measures the conversion of MTT to its insoluble formazan by the dehydrogenase enzymes of the intact mitochondria of living cells. […]; Nunclon; Nunc, Naperville, IL, USA) and incubated for 16 h at 37 °C for attachment. […] The amount of formazan, which is proportional to the metabolic activity of cells, was quantified spectrophotometrically at 570 nm (reference filter wavelength, 690 nm) using a microplate reader (Synergy MX; BioTek, Winooski, VT, USA). The metabolic activity of the cells was determined by comparing the optical densities of the CCP-treated cells with those of the negative control. […]
# U87-MG cells [3] = experiment: Cell morphology, light microscopy (phase contrast); assay type: cell-based, human
Structure (SMILES),concentration at which saturation of the air–water interface was observed [1] [µM],mean decrease in viability (U87-MG cells [2]) [%],viability vs control (U87-MG cells [2]),morphological changes under light microscopy (U87-MG cells [3])
CC[C@H](C)[C@@H]1NC(=O)[C@H](Cc2ccc(OC)cc2)N(C)C(=O)[C@H]([C@@H](C)O)N2C(=O)[C@H](CC[C@H]2O)NC(=O)[C@H](CC(C)C)NC(=O)[C@@H](NC(=O)[C@H](CCC(N)=O)NC(=O)[C@H](CCc2ccc(O)cc2)NC(=O)[C@@H](O)CO)[C@@H](C)OC1=O,25,,,
"C=C1C(=O)N[C@H](C)C(=O)N[C@@H](CC(C)C)C(=O)N[C@@H](C(=O)O)[C@H](C)C(=O)N[C@@H](CCCNC(=N)N)C(=O)N[C@@H](/C=C/C(C)=C/[C@H](C)[C@H](Cc2ccccc2)OC)[C@H](C)C(=O)N[C@@H](C(=O)O)CCC(=O)N1C [MC-LR, Microcystin-LR, reference compound] (R[Adda][d(γGlu)][NMeDha][dA]L[dAsp(3S-Me)]-OH; lactam N-7)",,15,not significantly changed,"loss of astrocytic domain organization, but also in a reduction in cell numbers"
